What was measured:
Details in all cases: 48 h
NOMO1 [1] = experiment: AUC of viability dose-response curve (% viability x log10 dose units); higher = less sensitive
In short: (§1)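 Area under the curve was integrated by trapezoidal rule from a log-logistic fit of normalised viability, with curves exceeding full viability scaled and quality-control failures removed. The fit had four parameters over log10 doses. Viability came from CellTiter-Glo One luminescence, normalised per plate to DMSO and cell-free wells, after leukemia cells adapted to each medium (500 or 1000 cells/well, 1536-well plates) were exposed to library compounds in DMSO for 48 h at 37°C. The 11 threefold doses ran from 47 μM to 0.79 nM.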

P12-Ichikawa [2] = experiment: as above
In short: as §1

SEM cells [3] = experiment: cell viability relative to DMSO control; higher = less cytotoxic
In short: (§2)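 Viability is expressed as a percentage of DMSO wells within each plate, and cell-free wells serve as background. Seeding densities in the 1536-well plates (5 μl) were 500 cells/well for NOMO1 or SEM leukemia cells and 1000 cells/well for P12-Ichikawa. Each line was adapted for at least four passages in each medium. Library compounds in DMSO were pin-dosed at 47 μM to 0.79 nM (11 points, threefold), and CellTiter-Glo One luminescence was read after 48 h at 37°C.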

NOMO1 [4] = experiment: as above
In short: as §2

P12-Ichikawa [5] = experiment: as above
In short: as §2

SEM cells [6] = experiment: AUC of viability dose-response curve (% viability x log10 dose units); higher = less sensitive
In short: as §1

CN(C)CCN1C(=O)c2cccc3cc(N)cc(c23)C1=O
AUC of viability dose-response curve
Details	HPLM + 10% dialyzed FBS	RPMI 5 mM glucose + 10% FBS	RPMI 5 mM glucose + 10% dialyzed FBS
NOMO1 [1]	424	427	435
P12-Ichikawa [2]	437	418	431

cell viability [%]
Details	NOMO1 [4]	P12-Ichikawa [5]	SEM cells [3]
HPLM + 10% dialyzed FBS, 0.000781 µM	116	104	94.4
HPLM + 10% dialyzed FBS, 0.00234 µM	122	113	89.4
HPLM + 10% dialyzed FBS, 0.00702 µM	118	108	110
HPLM + 10% dialyzed FBS, 0.0211 µM	125	109	108
HPLM + 10% dialyzed FBS, 0.0632 µM	118	111	105
HPLM + 10% dialyzed FBS, 0.19 µM	147	114	107
HPLM + 10% dialyzed FBS, 0.569 µM	118	115	108
HPLM + 10% dialyzed FBS, 1.71 µM	123	113	91.1
HPLM + 10% dialyzed FBS, 5.12 µM	93.7	104	51
HPLM + 10% dialyzed FBS, 15.4 µM	72.3	74.8	30.3
HPLM + 10% dialyzed FBS, 46.1 µM	26.7	7.88	3.64
RPMI 5 mM glucose + 10% FBS, 0.000781 µM	93.3	101	70.2
RPMI 5 mM glucose + 10% FBS, 0.00234 µM	108	113	67.3
RPMI 5 mM glucose + 10% FBS, 0.00702 µM	135	107	71.5
RPMI 5 mM glucose + 10% FBS, 0.0211 µM	108	113	72.1
RPMI 5 mM glucose + 10% FBS, 0.0632 µM	121	122	73.8
RPMI 5 mM glucose + 10% FBS, 0.19 µM	121	116	74.1
RPMI 5 mM glucose + 10% FBS, 0.569 µM	132	125	62.6
RPMI 5 mM glucose + 10% FBS, 1.71 µM	102	102	52.4
RPMI 5 mM glucose + 10% FBS, 5.12 µM	105	92.4	32.1
RPMI 5 mM glucose + 10% FBS, 15.4 µM	59.3	54.7	19.3
RPMI 5 mM glucose + 10% FBS, 46.1 µM	13.1	5.84	2.87
RPMI 5 mM glucose + 10% dialyzed FBS, 0.000781 µM	99.2	105	89.5
RPMI 5 mM glucose + 10% dialyzed FBS, 0.00234 µM	110	112	95
RPMI 5 mM glucose + 10% dialyzed FBS, 0.00702 µM	108	108	98.8
RPMI 5 mM glucose + 10% dialyzed FBS, 0.0211 µM	111	102	102
RPMI 5 mM glucose + 10% dialyzed FBS, 0.0632 µM	118	118	112
RPMI 5 mM glucose + 10% dialyzed FBS, 0.19 µM	118	130	99.3
RPMI 5 mM glucose + 10% dialyzed FBS, 0.569 µM	111	120	106
RPMI 5 mM glucose + 10% dialyzed FBS, 1.71 µM	108	101	92
RPMI 5 mM glucose + 10% dialyzed FBS, 5.12 µM	97.3	89.2	60.1
RPMI 5 mM glucose + 10% dialyzed FBS, 15.4 µM	73.6	77.9	34.6
RPMI 5 mM glucose + 10% dialyzed FBS, 46.1 µM	23.9	11.8	3.19

O=C(O)CCCc1c[nH]c2ccccc12
AUC of viability dose-response curve
Details	HPLM + 10% dialyzed FBS	RPMI 5 mM glucose + 10% FBS	RPMI 5 mM glucose + 10% dialyzed FBS
P12-Ichikawa [2]	468	431	452
SEM cells [6]	468	441	431

SEM cells [3], HPLM + 10% dialyzed FBS
Details	cell viability [%]
0.000781 µM	111
0.00234 µM	122
0.00702 µM	130
0.0211 µM	144
0.0632 µM	105
0.19 µM	113
0.569 µM	102
1.71 µM	124
5.12 µM	138
15.4 µM	131
46.1 µM	97.9

— the supplement of paper PMC11451515
